For assay [1], the system named is pentagastrin induced gastric acid secretion. The experiment in a line: Inhibition of pentagastrin induced gastric acid secretion in acute dog experiments with a modified perfusion technique (anaesthetized dog). It is filed as in vivo. The following applies: 10 mg/kg body weight, given into the duodenum in 0.5% Methocel suspension, pentagastrin 1-2 μg/kg. As to the method: The testing was performed in acute dog experiments with a modified perfusion technique.
The stomach of the anaesthetized dog was provided with one tube through the oesophagus for instillation of fluid and another tube via the ligated pylorus through duodenum for drainage of fluid. Saline was instilled in a volume of 5 ml/kg body weight, and the instillation fluid was changed every 15 minutes.
The samples collected were titrated to pH 7.0 with 0.04 N NaOH using a Radiometer automatic titrator, and the acid output per 15 minutes was calculated (collection periods).
Gastric acid secretion was induced by pentagastrin in 1-2 μg/kg.
The amount of active agent administered was 10 mg/kg body weight.

For assay [2], the system named is gastric acid secretion induced with pentagastrin. The experiment in a line: Duration of the effect in conscious dog provided with a ventricel fistula, gastric acid secretion induced with pentagastrin. It is filed as in vivo. As to the method:
The compounds of Examples 1, 3, and 9 have also been tested with regard to the duration of the effect obtained in conscious dog provided with a ventricel fistula, the gastric acid secretion being induced with pentagastrin. The amount of gastric acid secreted before the administration of active agent was determined using a titrator, whereupon the gastric acid secretion was determined using a titrator after administration. In the table below the inhibition in % of basic secretion has been given for two different dose levels.

On to `Cc1cccc2[nH]c(SCc3ccccn3)nc12` [Example 1, [2-pyridylmethylthio]-4-methyl-2-benzimidazole], for which, in assay [1], the “% inhibition of the pentagastrin induced gastric acid secretion” value was 89%. In addition, the “% inhibition of gastric acid secretion” value in assay [2] (1 mg/kg, 1 hr) is 20%; in assay [2] (1 mg/kg, 2 hrs), 25%; in assay [2] (1 mg/kg, 3 hrs), 25%; in assay [2] (2 mg/kg, 1 hr) it was 50%; in assay [2] (2 mg/kg, 2 hrs) it was 60%; in assay [2] (2 mg/kg, 3 hrs), 65%.

With `CCc1ccc2nc(SCc3ccccn3)[nH]c2c1` [Example 3, 2-[2-pyridylmethylthio]-(5-ethyl)-benzimidazole], in assay [1], the “% inhibition of the pentagastrin induced gastric acid secretion” value was determined as 86%. The “% inhibition of gastric acid secretion” value in assay [2] (1 mg/kg, 1 hr) is 20%; in assay [2] (1 mg/kg, 2 hrs), 25%; in assay [2] (1 mg/kg, 3 hrs) it was 25%; in assay [2] (2 mg/kg, 1 hr) it was 50%; in assay [2] (2 mg/kg, 2 hrs) it was 60%; in assay [2] (2 mg/kg, 3 hrs) it was 65%.

For the molecule `COc1ccc2[nH]c(SCc3ccccn3)nc2c1` [Example 5], the “% inhibition of the pentagastrin induced gastric acid secretion” value in assay [1] was found to be 40%.

As for `CCOC(=O)c1ccc2[nH]c(SCc3ccccn3)nc2c1` [Example 9], the “% inhibition of the pentagastrin induced gastric acid secretion” value in assay [1] worked out at 70%. Further, the “% inhibition of gastric acid secretion” value is reported as 20% in assay [2] (1 mg/kg, 1 hr); 25% in assay [2] (1 mg/kg, 2 hrs); 25% in assay [2] (1 mg/kg, 3 hrs); 50% in assay [2] (2 mg/kg, 1 hr); 60% in assay [2] (2 mg/kg, 2 hrs); 65% in assay [2] (2 mg/kg, 3 hrs).

On to `CC(=O)n1c(SCc2ccccn2)nc2ccccc21` [Example 16, 2-[2-pyridylmethylthio]-N-acetylbenzimidazole], for which, in assay [1], the “% inhibition of the pentagastrin induced gastric acid secretion” value is 80%.

Consider `COC(=O)n1c(SCc2ccccn2)nc2ccccc21` [Example 17, 2-[2-pyridylmethylthio]-N-methoxycarbonylbenzimidazole], for which the “% inhibition of the pentagastrin induced gastric acid secretion” value in assay [1] was 76%.

The record behind these values is patent publication US4045564A, “Benzimidazole derivatives useful as gastric acid secretion inhibitors” (AB Hassle, priority 1974, dated 1977).
